Here are results for four molecules from ChEMBL document CHEMBL1150795, “Sultam thiourea inhibition of West Nile virus” (Antimicrob Agents Chemother, 2007).

The test system of data set [1] is West Nile virus. The data set can be described thus: Antiviral activity against West Nile virus in BHK cells assessed as reduction of viral replicon after 48 hrs by luciferase based reporter gene assay relative to control. It is filed as functional. (In general: A replicon is a self-replicating genome or part of one, used to study replication in cells.)
Data set [2] has as its system Human immunodeficiency virus 1. The data set can be described thus: Antiviral activity against HIV1 in 293 cells assessed as reduction of viral replicon after 48 hrs by luciferase based reporter gene assay relative to control. It is filed as functional, organism-based. Particulars: HEK293.
The subject of data set [3] is West Nile virus. In words: Antiviral activity against West Nile virus NY 1999 infected in african green monkey Vero cells assessed as reduction of viral RNA level by RT-PCR relative to control. It is filed as functional.
Data set [4] has as its system West Nile virus. In words: Antiviral activity against West Nile virus NY 1999 infected in african green monkey Vero cells assessed as reduction of virus yield administered 2 hrs postinfection. It is filed as functional, organism-based.
Data set [5] has as its system West Nile virus. In words: Antiviral activity against West Nile virus NY 1999 infected in african green monkey Vero cells assessed as reduction of virus yield relative to control. It is filed as functional, organism-based.
In data set [6] the test system is West Nile virus. The data set can be described thus: Antiviral activity against West Nile virus NY 1999 infected in african green monkey Vero cells assessed as reduction of viral E protein level by immunoblot method. It is filed as functional, organism-based.
Data set [7] deals with Human adenovirus 5. In words: Antiviral activity against human adenovirus 5. It is filed as functional, organism-based.
Data set [8] in a line: Cytotoxicity against african green monkey Vero cells after 48 hrs by MTS method. It is filed as cell-based. Particulars: chlorocebus sabaeus. (In general: Tetrazolium assays rely on reduction of a dye to a coloured formazan, in cell work by metabolically active cells.)
The subject of data set [9] is Prospect Hill virus. The data set can be described thus: Antiviral activity against Prospect Hill Hantavirus. The data set is classed as functional, organism-based. Particulars: Orthohantavirus prospectense.
For data set [10], the system named is Human immunodeficiency virus 1. The data set can be described thus: Antiviral activity against HIV1. The data set is classed as functional, organism-based.
A short description of data set [11]: Cytotoxicity against african green monkey Vero cells by trypan blue exclusion assay. The data set is classed as cell-based. The following applies: chlorocebus sabaeus.
Data set [12] relates to West Nile virus. The data set can be described thus: Antiviral activity against West Nile virus NY 1999 infected in african green monkey Vero cells assessed as reduction of viral E protein level by immunofluorescence method. The data set is classed as functional, organism-based.
Data set [13] has as its system West Nile virus. The data set can be described thus: Antiviral activity against West Nile virus NY 1999 infected in african green monkey Vero cells assessed as reduction of virus yield after 5 days post infection at 2.3 uM relative to control. The data set is classed as functional.
The subject of data set [14] is Japanese encephalitis virus. The data set can be described thus: Antiviral activity against Japanese encephalitis virus SA14-2-8 infected in african green monkey Vero cells assessed as reduction of virus yield relative to control. The data set is classed as functional, organism-based.
Data set [15] concerns Vero. In words: Cytotoxicity against african green monkey Vero cells at 23 uM after 48 hrs by MTS method. The data set is classed as cell-based. The following applies: chlorocebus sabaeus.
Data set [16] in a line: Selectivity index, ratio of CC50 for african green monkey Vero cells to EC50 for West Nile virus NY 1999. Particulars: read-out: Ratio CC50/EC50. The data set is classed as toxicity, cell-based.
The subject of data set [17] is West Nile virus. The data set can be described thus: Antiviral activity against West Nile virus NY 1999 infected in african green monkey Vero cells assessed as reduction of virus yield after 5 days post infection at 23 uM relative to control. It is filed as functional.

The EC50 is the concentration at which the effect is half-maximal. Broadly, the CC50 is the concentration giving 50% cytotoxicity.

The source made the active and inactive calls. The calls are words filed in the database; no cut-off is given here.

Take `O=S1(=O)CS/C(=N\C(=S)N(c2ccccc2)c2ccccc2)N1c1ccccc1`: the “fold change (FC)” value is above 20 in data set [1], 100 in [13] and 100 in [17]. Besides, the outcome in data set [2] was inactive. For the same molecule, the Activity is reported as above 100 in [3] and “Non-toxic” in data set [15]. Moreover, the result in [4], in data set [6], in data set [7], in data set [9], in data set [10] and in data set [12] was Active. The values for the EC50 in data set [5] and in data set [14] were 0.7 µM and 7 µM, respectively. In [8], this molecule showed a CC50 at 48 h above 70 µM. This molecule registered a CC50 in data set [11] above 70 µM. Besides, in data set [16], the selectivity ratio was above 100.

`CC(C)N(C(=S)/N=C1\SCS(=O)(=O)N1c1ccccc1)C(C)C`: the EC50 came to 80 µM in [5] and 8 µM in [14]. Besides, the CC50 at 48 h in [8] was above 80 µM.

Consider `O=S1(=O)CS/C(=N\C(=S)N(Cc2ccccc2)Cc2ccccc2)N1c1ccccc1`, for which the values for the concentration for a half-maximal effect (EC50) in [5] and in data set [14] were 22 µM and 65 µM, respectively. Besides, the midpoint of cytotoxicity in data set [8], the CC50 at 48 h, lay at 65 µM.

As for `CC(C)N(C(=S)/N=C1\SC(C)S(=O)(=O)N1C)C(C)C` (stereo unspecified), the EC50 in [5] and in data set [14] was 30 µM in each case. Besides, half-maximal cytotoxicity in [8] (CC50 at 48 h) was put at 90 µM.
